Results as given in US20190082696A1, “METHOD FOR CONTROLLING PESTS OF PLANTS” (BASF SE, priority 2016, published 2019).

Test system: green peach aphid (Myzus persicae)
Experiment: Biological activity of mixtures: green peach aphid systemic test with Colby analysis
Format: in vivo
Settings: 3 days
Text: Synergism can be described as an interaction where the combined effect of two or more compounds is greater than the sum of the individual effects of each of the compounds. The presence of a synergistic effect in terms of percent control, between two mixing partners (X and Y) can be calculated using the Colby equation (Colby, S. R., 1967, Calculating Synergistic and Antagonistic Responses in Herbicide Combinations, Weeds, 15, 20-22):
When the observed combined control effect is greater than the expected combined control effect (E), then the combined effect is synergistic.
The analysis of synergism or antagonism between the mixtures or compositions was determined using Colby's equation.
For evaluating control of green peach aphid (Myzus persicae) through systemic means the test unit consisted of 96-well-microtiter plates containing liquid artificial diet under an artificial membrane.
The compounds or mixtures were formulated using a solution containing 75% water and 25% DMSO. Different concentrations of formulated compounds or mixtures were pipetted into the aphid diet, using a custom built pipetter, at two replications. […]
After application, 5-8 adult aphids were placed on the artificial membrane inside the microtiter plate wells. […] Aphid mortality and fecundity was then visually assessed.

## CC1(C)C(C=C(Cl)Cl)C1C(=O)OC(C#N)c1cccc(Oc2ccccc2)c1 (centres unmarked) [Alphacypermethrin]
10 ppm
  Average Control %: 0%

## CCC(=O)N1CC2(C1)OCc1cc(C3=NOC(c4cc(Cl)c(F)c(Cl)c4)(C(F)(F)F)C3)ccc12 (centres unmarked) [Compound I-1]
0.4 ppm
  Average Control %: 0%
